Values after ≈ are worked out from the molar mass of the structure shown.
Key:
S. aureus = experiment: Bacterial susceptibility testing in liquid media (MIC); assay type: cell-based; details: Staphylococcus aureus; against S. aureus; lowest concentration able to reduce growth by 80% or more
Description: Compounds may be tested for antimicrobial activity by susceptibility testing in liquid media. Compounds may be dissolved in dimethylsulfoxide and tested in 10 doubling dilutions in the susceptibility assays. The organisms used in the assay may be grown overnight on suitable agar media and then suspended in a liquid medium appropriate for the growth of the organism. The suspension can be a 0.5 McFarland and a further 1 in 10 dilution can be made into the same liquid medium to prepare the final organism suspension in 100 μL. Plates can be incubated under appropriate conditions at 37° C. for 24 hrs prior to reading. The Minimum Inhibitory Concentration (MIC) may be determined as the lowest drug concentration able to reduce growth by 80% or more.

S. aureus GyrB ATPase = S. aureus GyrB ATPase (Staphylococcus aureus, UniProt P0A0K8); experiment: S. aureus GyrB ATPase inhibition (ammonium molybdate/malachite green phosphate detection); assay type: biochemical; details: 1 μM compound, S. aureus GyrB ATPase; for inhibition at 1 µM: read-out: Percent Inhibition (1 μM)
Sequence of S. aureus GyrB ATPase (P0AES4 whole entry): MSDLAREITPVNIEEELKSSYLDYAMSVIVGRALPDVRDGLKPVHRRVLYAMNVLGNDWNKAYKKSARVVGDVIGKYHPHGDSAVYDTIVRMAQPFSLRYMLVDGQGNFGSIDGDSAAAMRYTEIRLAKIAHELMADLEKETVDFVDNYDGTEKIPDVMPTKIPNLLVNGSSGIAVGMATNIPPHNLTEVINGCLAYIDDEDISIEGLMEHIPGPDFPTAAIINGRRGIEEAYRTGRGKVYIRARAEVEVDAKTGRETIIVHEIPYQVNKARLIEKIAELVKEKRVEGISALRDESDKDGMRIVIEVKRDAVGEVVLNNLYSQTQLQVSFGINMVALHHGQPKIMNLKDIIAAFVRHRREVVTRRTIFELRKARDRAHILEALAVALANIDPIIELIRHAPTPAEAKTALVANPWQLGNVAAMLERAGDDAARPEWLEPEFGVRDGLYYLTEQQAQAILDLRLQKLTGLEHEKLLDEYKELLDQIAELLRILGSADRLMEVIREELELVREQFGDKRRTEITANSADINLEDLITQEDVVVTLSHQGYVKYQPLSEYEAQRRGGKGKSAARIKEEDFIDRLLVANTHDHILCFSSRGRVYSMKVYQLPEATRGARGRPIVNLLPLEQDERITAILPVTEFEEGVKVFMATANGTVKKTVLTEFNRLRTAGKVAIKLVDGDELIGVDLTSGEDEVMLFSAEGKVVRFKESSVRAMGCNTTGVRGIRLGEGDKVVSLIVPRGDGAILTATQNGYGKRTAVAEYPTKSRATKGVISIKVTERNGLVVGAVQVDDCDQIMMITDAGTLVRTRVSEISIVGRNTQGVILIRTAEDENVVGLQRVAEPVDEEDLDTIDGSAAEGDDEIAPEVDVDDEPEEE
Sequence of S. aureus GyrB ATPase (P0A0K8 whole entry): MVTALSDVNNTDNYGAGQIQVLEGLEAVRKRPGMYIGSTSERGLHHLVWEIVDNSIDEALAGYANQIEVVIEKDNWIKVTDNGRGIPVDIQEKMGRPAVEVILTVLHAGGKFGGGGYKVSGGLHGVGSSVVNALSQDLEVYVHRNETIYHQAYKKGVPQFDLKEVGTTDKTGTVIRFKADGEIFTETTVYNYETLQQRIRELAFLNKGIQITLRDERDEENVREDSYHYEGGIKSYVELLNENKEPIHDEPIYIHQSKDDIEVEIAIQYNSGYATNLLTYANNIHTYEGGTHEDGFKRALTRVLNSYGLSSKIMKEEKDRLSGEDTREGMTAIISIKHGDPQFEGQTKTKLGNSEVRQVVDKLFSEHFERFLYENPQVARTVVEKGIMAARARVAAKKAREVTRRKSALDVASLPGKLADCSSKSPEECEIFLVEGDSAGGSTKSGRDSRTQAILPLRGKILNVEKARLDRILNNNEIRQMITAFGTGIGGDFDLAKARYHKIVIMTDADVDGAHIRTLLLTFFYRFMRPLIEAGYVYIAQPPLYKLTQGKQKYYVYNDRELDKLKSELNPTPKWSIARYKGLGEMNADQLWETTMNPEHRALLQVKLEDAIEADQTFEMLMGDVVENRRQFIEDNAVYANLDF
Procedure: S. aureus GyrB ATPase Inhibition Activity: Compounds may be tested for inhibition of S. aureus GyrB ATPase activity using an ammonium molybdate/malachite green-based phosphate detection assay (Lanzetta, P. A., L. J. Alvarez, P. S. Reinach, and O. A. Candia, 1979, 100: 95-97). Assays can be performed in multiwell plates in 30 μl reactions containing: 50 mM Hepes buffer pH 7.5, 75 mM ammonium acetate, 8.0 mM magnesium chloride, 0.5 mM ethylenediaminetetraacetic acid, 5% glycerol, 1.0 mM 1,4-Dithio-DL-threitol, 200 nM bovine serum albumin, 1.0 μg/ml sheared salmon sperm DNA, 250 pM E. coli GyrA, 250 pM S. aureus GyrB, 250 μM ATP, and compound in dimethylsulfoxide. Reactions can be quenched with 30 μl of ammonium molybdate/malachite green detection reagent containing 1.2 mM malachite green hydrochloride, 8.5 mM ammonium molybdate tetrahydrate, and 1 M hydrochloric acid. Plates can be read in an absorbance plate reader at 650 nm and percent inhibition values can be calculated using dimethylsulfoxide (2%)-containing reactions as 0% inhibition and EDTA-containing ([…]) reactions as 100% inhibition controls. An IC50 measurement of compound potency for each compound can be determined from reactions performed in the presence of 10 different compound concentrations.

SMILES | inhibition at 1 µM (S. aureus GyrB ATPase) | also measured
CCNC(=O)Nc1cc(-c2nc(C(F)(F)F)cs2)c(-c2cnc3c(c2)c(=O)c(C(=O)O)cn3CCO)cn1 [Example 10, 6-{6-[(ethylcarbamoyl)amino]-4-[4-(trifluoromethyl)-1,3-thiazol-2-yl]pyridin-3-yl}-1-(2-hydroxyethyl)-4-oxo-1,4-dihydro-1,8-naphthyridine-3-carboxylic acid] | 93% | MIC (S. aureus): 0.55 µM (≈ 0.302 µg/mL)
CCNC(=O)Nc1cc(-c2nc(C(F)(F)F)cs2)c(-c2cc3c(=O)c(C(=O)O)cn([C@H](CO)CC(C)C)c3cn2)cn1 [Example 45] | 107% | 
CCNC(=O)Nc1cc(-c2nc(C(F)(F)F)cs2)c(-c2cc3c(=O)c(C(=O)O)cn(CCOC)c3cn2)cn1 [Example 46] | 106% | 
CCNC(=O)Nc1cc(-c2nc(C(F)(F)F)cs2)c(-c2cc3c(=O)c(C(=O)O)cn(CCN(C)C)c3cn2)cn1 [Example 47] | 98% | 
CCNC(=O)Nc1cc(-c2nc(C(F)(F)F)cs2)c(-c2cc3c(=O)c(C(=O)O)cn([C@H]4CCCN(CCN5CCOCC5)C4)c3cn2)cn1 [Example 48] | 101% | 
CCNC(=O)Nc1cc(-c2nc(C(F)(F)F)cs2)c(-c2cc3c(=O)c(C(=O)O)cn([C@@H]4CCCN(CCN5CCOCC5)C4)c3cn2)cn1 [Example 49] | 98% | 
CCNC(=O)Nc1cc(-c2nc(C(F)(F)F)cs2)c(-c2cc3c(=O)c(C(=O)O)cn(Cc4cn(C)cn4)c3cn2)cn1 [Example 50] | 99% | 
CCNC(=O)Nc1cc(-c2nc(C(F)(F)F)cs2)c(-c2cc3c(=O)c(C(=O)O)cn(Cc4cnn(C)c4)c3cn2)cn1 [Example 51, 6-(6-(3-ethylureido)-4-(4-(trifluoromethyl)thiazol-2-yl)pyridin-3-yl)-1-((1-methyl-1H-pyrazol-4-yl)methyl)-4-oxo-1,4-dihydro-1,7-naphthyridine-3-carboxylic acid] | 102% | 
CCNC(=O)Nc1cc(-c2nc(C(F)(F)F)cs2)c(-c2cc3c(=O)c(C(=O)O)cn([C@H]4CCCN(CCN(CC)CC)C4)c3cn2)cn1 [Example 52, (5)-1-(1-(2-(diethylamino)ethyl)piperidin-3-yl)-6-(6-(3-ethylureido)-4-(4-(trifluoromethyl)thiazol-2-yl)pyridin-3-yl)-4-oxo-1,4-dihydro-1,7-naphthyridine-3-carboxylic acid] |  | Percent Inhibition (1 μM) (S. aureus GyrB ATPase): 105%
CCNC(=O)Nc1cc(-c2nc(C(F)(F)F)cs2)c(-c2cc3c(=O)c(C(=O)O)cn([C@@H]4CCCN(CCN(CC)CC)C4)c3cn2)cn1 [Example 53] | 103% | 
CCNC(=O)Nc1cc(-c2nc(C(F)(F)F)cs2)c(-c2cnc3c(c2)c(=O)c(C(=O)O)cn3[C@@H]2CCCN(CCN(CC)CC)C2)cn1 [Example 54] | 106% | 
CCNC(=O)Nc1cc(-c2nc(C(F)(F)F)cs2)c(-c2cnc3c(c2)c(=O)c(C(=O)O)cn3C(COC)COC)cn1 [Example 55] | 103% | 
CCNC(=O)Nc1cc(-c2nc(C(F)(F)F)cs2)c(-c2cnc3c(c2)c(=O)c(C(=O)O)cn3CCN2CCOCC2)cn1 [Example 56] | 101% | 
CCNC(=O)Nc1cc(-c2nc(C(F)(F)F)cs2)c(-c2cnc3c(c2)c(=O)c(C(=O)O)cn3C2CN(C)C2)cn1 [Example 57] | 107% | 
CCNC(=O)Nc1cc(-c2nc(C(F)(F)F)cs2)c(-c2cc3c(=O)c(C(=O)O)cn(C[C@@H]4CCCN4CC)c3nc2N2CCN(C)CC2)cn1 [Example 58] | 104% | 
CCNC(=O)Nc1cc(-c2nc(C(F)(F)F)cs2)c(-c2cc3c(=O)c(C(=O)O)cn([C@H](CO)C(C)(C)C)c3nc2N2CCN(C)CC2)cn1 [Example 59, (S)-6-(6-(3-ethylureido)-4-(4-(trifluoromethyl)thiazol-2-yl)pyridin-3-yl)-1-(1-hydroxy-3,3-dimethylbutan-2-yl)-7-(4-methylpiperazin-1-yl)-4-oxo-1,4-dihydro-1,8-naphthyridine-3-carboxylic acid] | 108% | 
CCNC(=O)Nc1cc(-c2nc(C(F)(F)F)cs2)c(-c2cc3c(=O)c(C(=O)O)cn(CCN4CCN(C)CC4)c3nc2N2CC[C@@H](CN)C2)cn1 [Example 60] | 101% | 

SMILES | inhibition at 1 µM (S. aureus GyrB ATPase) | also measured
CCNC(=O)Nc1cc(-c2nc(C(F)(F)F)cs2)c(-c2cc3c(=O)c(C(=O)O)cn(CCN4CCN(C)CC4)c3nc2N2CC[C@H](N)C2)cn1 [Example 61] | 103% | 
CCNC(=O)Nc1cc(-c2nc(-c3ccccc3)cs2)c(-c2cc3c(=O)c(C(=O)O)cn([C@H]4CCCN(CCN5CCOCC5)C4)c3cn2)cn1 [Example 63] | 105% | 
CCNC(=O)Nc1cc(-c2nc(-c3ccccc3)cs2)c(-c2cc3c(=O)c(C(=O)O)cn([C@@H]4CCCN(CCN5CCOCC5)C4)c3cn2)cn1 [Example 64] | 100% | 
CCNC(=O)Nc1cc(-c2nc(-c3ccccc3)cs2)c(-c2cc3c(=O)c(C(=O)O)cn(Cc4cn(C)cn4)c3cn2)cn1 [Example 65] | 98% | 
CCNC(=O)Nc1cc(-c2nc(C(F)(F)F)cs2)c(-c2cc3c(=O)c(C(=O)O)cn(C(C)(C)C)c3cn2)cn1 [Example 66] | 106% | 
CCNC(=O)Nc1cc(-c2nc(C(F)(F)F)cs2)c(-c2cc3c(=O)c(C(=O)O)cn(CCN4CCCC4)c3cn2)cn1 [Example 67] | 93% | 
CCNC(=O)Nc1cc(-c2nc(C(F)(F)F)cs2)c(-c2cc3c(=O)c(C(=O)O)cn(CC)c3cn2)cn1 [Example 68] | 110% | 
CCNC(=O)Nc1cc(-c2nc(C(F)(F)F)cs2)c(-c2cc3c(=O)c(C(=O)O)cn(CCN4CCOCC4)c3cn2)cn1 [Example 69] | 103% | 
CCNC(=O)Nc1cc(-c2nc(C(F)(F)F)cs2)c(-c2cc3c(=O)c(C(=O)O)cn(C4CN(C)C4)c3cn2)cn1 [Example 70] | 102% | 
CCNC(=O)Nc1cc(-c2nc(C(F)(F)F)cs2)c(-c2cc3c(=O)c(C(=O)O)cn([C@H](CO)C(C)(C)C)c3cn2)cn1 [Example 71] | 103% | 
CCNC(=O)Nc1cc(-c2nc(C(F)(F)F)cs2)c(-c2cc3c(=O)c(C(=O)O)cn(Cc4ccncc4)c3cn2)cn1 [Example 72] | 105% | 
CCCN1CC[C@H](Cn2cc(C(=O)O)c(=O)c3cc(-c4cnc(NC(=O)NCC)cc4-c4nc(C(F)(F)F)cs4)ncc32)C1 [Example 73] | 108% | 
CCNC(=O)Nc1cc(-c2nc(C(F)(F)F)cs2)c(-c2cc3c(=O)c(C(=O)O)cn(C[C@@H]4CCN(CC)C4)c3cn2)cn1 [Example 74] | 100% | 
CCNC(=O)Nc1cc(-c2nc(-c3cnn(C)c3)cs2)c(-c2cc3c(=O)c(C(=O)O)cn(C4CC4)c3cn2)cn1 [Example 75] | 108% | 
CCNC(=O)Nc1cc(-c2nc(-c3cnn(C)c3)cs2)c(-c2cc3c(=O)c(C(=O)O)cn(Cc4cn(C)cn4)c3cn2)cn1 [Example 76, 6-(6-(3-ethylureido)-4-(4-(1-methyl-1H-pyrazol-4-yl)thiazol-2-yl)pyridin-3-yl)-1-((1-methyl-1H-imidazol-4-yl)methyl)-4-oxo-1,4-dihydro-1,7-naphthyridine-3-carboxylic acid] | 109% | 
CCNC(=O)Nc1cc(-c2nc(C(F)(F)F)cs2)c(-c2cc3c(=O)c(C(=O)O)cn(CC)c3nc2N2CCC(N)C2)cn1 (centres unmarked) [Example 77] | 105% | 
CCNC(=O)Nc1cc(-c2nc(C(F)(F)F)cs2)c(-c2cc3c(=O)c(C(=O)O)cn([C@H](CO)C(C)(C)C)c3nc2N2CCC(N)C2)cn1 (stereo partly drawn) [Example 78, 7-(3-aminopyrrolidin-1-yl)-6-(6-(3-ethylureido)-4-(4-(trifluoromethyl)thiazol-2-yl)pyridin-3-yl)-1-((S)-1-hydroxy-3,3-dimethylbutan-2-yl)-4-oxo-1,4-dihydro-1,8-naphthyridine-3-carboxylic acid] | 98% | 

Source: patent US8569484B2, “Heterocyclic urea derivatives and methods of use thereof” (Astrazeneca AB, priority 2009, dated 2013)
